Assay results published in PubChem BioAssay AID467 (The Scripps Research Institute Molecular Screening Center, 2006).
Calls of active or inactive are those of the source. The rule behind the calls is not given here.

Test system: parental cell line counter screen, S1P1 agonist assay readout
Experiment: signal in parental cells, counter-screen for S1P1 agonist project (AID 467);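 note: agonist potency measured against forskolin stimulation plus an EC20 level of SEW2871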

Row | SMILES | EC50
1 | Cc1cccc(N2CCN(C(=O)CSCc3c(C)noc3C)CC2)c1C | > 30 µM (inactive)
2 | Cc1ccc(-n2c(C)cc(C(=O)COC(=O)c3c(C)noc3C)c2C)cc1 | 37.6 µM (inactive)
3 | COc1ccc(OCCCSc2ncccn2)cc1 | > 95.1 µM (inactive)
4 | CCOC(=O)c1oc2ccc(S(=O)(=O)n3nc(-c4ccc(OC)cc4)cc3N)cc2c1C | > 95.1 µM (inactive)
5 | O=C(c1ccc(Cl)s1)N1CCN(c2nc3ccccc3s2)CC1 | > 95.1 µM (inactive)
6 | CCOC(=O)C1CCN(c2ncnc3c2oc2ccccc23)CC1 | 45.1 µM (inactive)
7 | Cc1nc2sc(-c3ccccc3)cc2c(=O)n1-n1cccc1 | > 95.1 µM (inactive)
8 | CC1=CC(C)(C)Nc2ccc(OC(=O)c3cccnc3)cc21 | 4.43 µM
9 | CC(C)(CC(=O)N1CCN(c2ccc(Cl)cc2)CC1)CC1=NS(=O)(=O)c2ccccc2N1 | 19.9 µM (inactive)
10 | CCOC(=O)c1c(C)[nH]c(C(=O)C(C)OC(=O)c2cccc(OCc3c(C)noc3C)c2)c1C (stereo not given) | 20.1 µM (inactive)
11 | CCCCOc1ccc(S(=O)(=O)n2c(C)nc3ccccc32)cc1 | > 95.1 µM (inactive)
12 | Cc1ccccc1-c1noc(-c2ccc(O)cc2)n1 | 25 µM (inactive)
13 | CCOc1ccc(S(=O)(=O)n2cnc3cc(C)c(C)cc32)cc1 | > 30 µM (inactive)
14 | Cc1cccc(-n2ncc3c(N(C)C4CCCCC4)ncnc32)c1 | > 95.1 µM (inactive)
15 | CCOc1ccc(-c2nnc(-c3cccnc3)o2)cc1OCC | > 95.1 µM (inactive)
16 | CCN=c1scc(-c2ccc3c(c2)NC(=O)CO3)n1N=C1CCCC1 | > 30 µM (inactive)
17 | Cc1ccc(-c2nc(COC(=O)c3c(C)noc3C)cs2)cc1 | > 95.1 µM (inactive)
18 | Cc1cccc(OCCCCc2c(C)n[nH]c2C)c1C | 29.3 µM (inactive)
19 | CCOc1ccc(-c2nc(-c3ccccc3)no2)cc1OCC | > 95.1 µM (inactive)
20 | O=C(c1ccccc1)C(CCC(CN1CCOCC1)C(=O)c1ccccc1)CN1CCOCC1 (stereo not given) | 2.68 µM

Row | SMILES | EC50
21 | CCSc1nc(N2CCOCC2)c2c(c1C#N)CCCC2 | > 95.1 µM (inactive)
22 | Cn1c(-c2c(N)n(C3CCCC3)c3nc4ccccc4nc23)nc2ccccc21 | 1.96 µM
23 | CCOC(=O)/C=C/S(=O)(=O)c1ccc(NC(C)=O)cc1 | 3.96 µM
24 | O=C(NCc1ccccc1)N1CCN(c2ccc(Cl)c(Cl)c2)CC1 | > 95.1 µM (inactive)
25 | O=S(=O)(C/C(=C/CO)S(=O)(=O)c1ccccc1)c1ccccc1 | 2.21 µM
26 | CCC(C)c1ccc2oc(-c3ccc(NC(=O)Cn4cnc5c(=O)n(C)c(=O)n(C)c54)cc3)nc2c1 (stereo not given) | > 95.1 µM (inactive)
27 | CN(C)S(=O)(=O)c1ccc(C(=O)Nc2nc(-c3cccs3)cs2)cc1 | > 95.1 µM (inactive)
28 | COC(=O)c1ccc(CSc2nc3ccccc3c(=O)n2Cc2ccco2)o1 | > 95.1 µM (inactive)
29 | CCOc1nc(-c2ccccc2)ccc1-c1noc(-c2ccco2)n1 | > 95.1 µM (inactive)
30 | O=C(Nc1nc(-c2ccc(Cl)s2)cs1)c1ccncc1 | > 95.1 µM (inactive)
31 | O=S1(=O)C=C(Sc2nc3ccccc3s2)c2ccccc21 | 1.26 µM
32 | Clc1ccc(-n2nnnc2Sc2ncnc3sccc23)cc1 | 2.87 µM
33 | Cc1cccc(OCCCCc2c(C)n[nH]c2C)c1 | > 30 µM (inactive)
34 | COc1ccc(Cc2nc(-c3ccc(-n4cccc4)cc3)no2)cc1OC | > 95.1 µM (inactive)
35 | CN1CCN(C(=O)CSc2nc(-c3cccs3)cc(-c3cccs3)c2C#N)CC1 | 19.7 µM (inactive)
36 | O=C(CSc1nnc(Cc2csc(Nc3cccc(Cl)c3)n2)o1)N1CCc2ccccc21 | > 95.1 µM (inactive)
37 | Cc1ccc(Cl)cc1N1CCN(C(=O)C2CCN(c3nnc(-n4cccc4)s3)CC2)CC1 | > 95.1 µM (inactive)
38 | COc1cc(CSc2nnnn2-c2ccc(C)cc2)cc(OC)c1OC | > 30 µM (inactive)
39 | Cn1c(=O)oc2cc(S(=O)(=O)N3CCCC(C(=O)N4CC=C(c5ccccc5)CC4)C3)ccc21 (stereo not given) | 44.5 µM (inactive)
40 | Cc1ccc(C)c(-n2nnnc2Sc2nnnn2-c2ccccc2)c1 | 6.91 µM
